This is an account of results in patent publication US4925861A, “Carboxystyrene derivatives and drugs containing them as effective ingredients” (Mitsubishi Kasei Corporation, priority 1987, dated 1990).

Each structure is given as a SMILES string.

This assay has as its system Phospholipase A2 from Naja mocambique. Nature of the assay: in vitro phospholipase inhibiting activity (DPybPC fluorescence). The assay is classed as biochemical. The note with it: compound 10^-5 M, substrate DPybPC 2 μM, pH 8.0, 25° C.

As for `O=C(Nc1ccccc1C(=O)O)c1cccc(C=Cc2nc3ccccc3s2)c1` [Compound 13], the “Phospholipase A2 Inhibition (%)” value came to 73%.
The result for `CCC(CC)(CNC(=O)c1cccc(C=Cc2nc3ccccc3s2)c1)C(=O)O` [Compound 20] reads 47%.
